{
  "source": "patent US10494611B2",
  "about": "“Compositions comprising a mitofusin inhibitor for promoting cell reprogramming and a use thereof” (KOREA RESEARCH INSTITUTE OF BIOSCIENCE AND BIOTECHNOLOGY, priority 2014, dated 2019)",
  "key": {"MEFs [1]": {"test_system": "MEFs", "test": "Reprogramming of MEFs by OSKM transduction, AP staining", "format": "cell-based, mouse"}, "human Mfn1 promoter": {"test_system": "human Mfn1 promoter", "test": "Human Mfn1 promoter reporter assay (luciferase) in 293T cells, REDOX library screening", "format": "cell-based", "details": "293T cells with human Mfn1 promoter reporter, 10 μM, 48 hours", "experimental": "(§1) In one specific embodiment of the present invention, mouse and human Mfn1 promoter reporter (Genecopoeia) cells were prepared using Mfn1−/−MEFs and 293T cells, respectively, and a Screen-Well™ REDOX library containing the 84 compounds was treated at a concentration of 10 μM by for 48 hours.\n(§2) Mfn1-KO MEFs were stably transfected with an Mfn1 promoter reporter construct (Genecopoeia) cells of mouse and human were produced using Mfn1−/− MEFs and 293T cells (human embryonic renal cells) and then treated with the Screen-Well™ REDOX library, containing 84 compounds, for 48 hours in a concentration of 10 nM to 10 μM. Mfn1 promoter activity was measured in the culture supernatants with the Secrete-Pair™ Dual Luminescence and Gaussia Luciferase Assay Kits (Genecopoeia) using a SpectraMax microplate reader."}, "MEFs [2]": {"test_system": "MEFs", "test": "Mitochondrial morphology of reprogramming cultures (Mito-EYFP)", "format": "cell-based, mouse", "details": "OSKM, 50 μM Mdivi1, Mito-EYFP, D7", "experimental": "Cells were fixed in 4% paraformaldehyde for 10 minutes at room temperature (RT) and then in MeOH for 15 minutes at −20° C., after which their permeability was increased with 0.3% Triton X-100 in PBS for 30 min and blocked with 4% BSA for 2 hours at RT. The samples were stained with the anti-Tom20 antibody diluted in a blocking buffer at 4° C. overnight. After washing, the cells were stained with Alexa 488-conjugated secondary antibodies (Invitrogen) for 45 minutes at RT. The nuclei were counterstained with 10 μg/ml DAPI. For live cell imaging, the cells were incubated with 200 nM MitoTracker® Red CMXRos (Invitrogen) for 30 minutes at 37° C. Florescent images were analyzed under an IX51 microscope (Olympus) or an Axiovert 200M microscope (Carl Zeiss)."}, "mouse Mfn1 promoter": {"test_system": "mouse Mfn1 promoter", "test": "Mouse Mfn1 promoter reporter assay (luciferase), REDOX library screening", "format": "cell-based", "details": "Mfn1−/− MEFs carrying Mfn1 promoter reporter, 10 μM, 48 hours", "experimental": "as §1, §2"}},
  "note": "“Also recorded” adds a separate entry of the source.",
  "data": [
    {"smiles": "O=CC[C@@H](O)[C@H](O)[C@H](O)CO", "note": "[2-DG, 2-deoxy-D-glucose]", "values": [
      {"measurement": "cellular reprogramming (AP+ colonies) with glycolysis inhibitor", "setting": "MEFs [1]; OSKM reprogramming of MEFs, D11", "result": "substantially decreased"}
    ]},
    {"smiles": "CC1=C(C)C(=O)C(CC[C@](C)(O)CCC[C@H](C)CCC[C@H](C)CCCC(C)C)=C(C)C1=O", "note": "[D-α-tocopheryl quinone]", "values": [
      {"measurement": "human Mfn1 promoter activity (relative luciferase activity)", "setting": "human Mfn1 promoter", "result": "down-regulated; also recorded: best inhibit"}
    ]},
    {"smiles": "COc1cc(-n2c(=S)[nH]c3ccccc3c2=O)c(Cl)cc1Cl", "note": "[Mdivi1]", "values": [
      {"measurement": "higher reprogramming efficiency of Mfn1−/− and Mfn2−/− MEFs", "setting": "MEFs [1]; OSKM, 50 μM Mdivi1, AP+ colonies D11", "result": "blocked"},
      {"measurement": "fragmented mitochondrial morphology of Mfn1−/− and Mfn2−/− MEFs", "setting": "MEFs [2]", "result": "blocked"}
    ]},
    {"smiles": "Cc1coc2c1C(=O)C(=O)c1c-2ccc2c1CCCC2(C)C", "note": "[Tanshinone IIA]", "values": [
      {"measurement": "mouse Mfn1 promoter activity (relative luciferase activity)", "setting": "mouse Mfn1 promoter", "result": "top 2 upregulated"}
    ]},
    {"smiles": "C[C@]12C=CC(=O)C=C1CC[C@@H]1C2=CC[C@]2(C)[C@@H](C(=O)CN3CCN(c4cc(N5CCCC5)nc(N5CCCC5)n4)CC3)CC[C@@H]12.O=C(O)/C=C\\C(=O)O", "note": "[U74389G maleate, 21-[4-(2,6-di-1-pyrrolidinyl-4-pyrimidinyl)-1-piperazinyl]pregna-1,4,9[11]-triene-3,20-dione maleate]", "values": [
      {"measurement": "mouse Mfn1 promoter activity (relative luciferase activity)", "setting": "mouse Mfn1 promoter; listed as 21-[4-(2,6-di-1-pyrrolidinyl-4-pyrimidinyl)-1-piperazinyl]pregna-1,4,9[11]-trien, maleate", "result": "top 3 downregulated"},
      {"measurement": "mouse Mfn1 promoter activity (relative luciferase activity)", "setting": "mouse Mfn1 promoter; maleate", "result": "down-regulated; also recorded: inhibited"},
      {"measurement": "human Mfn1 promoter activity (relative luciferase activity)", "setting": "human Mfn1 promoter; maleate", "result": "down-regulated; also recorded: best inhibit"}
    ]},
    {"smiles": "CN(C/C=C/C#CC(C)(C)C)Cc1cccc2ccccc12.Cl", "note": "[erbinafine.HCl]", "values": [
      {"measurement": "mouse Mfn1 promoter activity (relative luciferase activity)", "setting": "mouse Mfn1 promoter", "result": "top 2 upregulated"}
    ]},
    {"smiles": "CCCCCCCCCCCCCCCC(=O)OC/C=C(C)/C=C/C=C(C)/C=C/C1=C(C)CCCC1(C)C", "note": "[retinyl palmitate]", "values": [
      {"measurement": "human Mfn1 promoter activity (relative luciferase activity)", "setting": "human Mfn1 promoter", "result": "down-regulated; also recorded: best inhibit"}
    ]},
    {"smiles": "Cc1nc(C)c(C)nc1C", "note": "[tetramethylpyrazine]", "values": [
      {"measurement": "mouse Mfn1 promoter activity (relative luciferase activity)", "setting": "mouse Mfn1 promoter", "result": "top 3 downregulated"},
      {"measurement": "mouse Mfn1 promoter activity (relative luciferase activity)", "setting": "mouse Mfn1 promoter; listed as tetramethyl pyrazine", "result": "down-regulated"}
    ]}
  ]
}
